Tested on: LNCaP cells
Assay: Androgen regulation of gene expression by qPCR in LNCaP cells stimulated with R1881
Format: cell-based
Settings: target gene to GAPDH ratio
Excerpt: FIG. 6, a illustrates the tissue specificity of the 4 contiguous genes in the 14q13.3-14q21.1 region which was interrogated in the expo dataset (using Oncomine) and expression (in normalized expression units) is shown for 28 distinct tumor types and prostate cancer. FIG. 6, b and -c illustrate androgen regulation of the contiguous 14q13.3-14q21.1 genes (FIG. 6, b) and ETV1 (FIG. 6, c), as determined by qPCR in LNCaP cells with (+) or without (−) stimulation by the synthetic androgen R1881. Ratios of target gene to GAPDH (mean (n=4)+S.E.) are shown. FIG. 6, d illustrates that LNCaP and its androgen insensitive derivative, C4-2B, were profiled using a microarray (Agilent Whole Genome Microarrays), in which the top ten most differentially expressed features (LNCaP/C4-2B) are shown. FIG. 6, e-g illustrate qPCR results that show decreased expression of androgen regulated genes in C4-2B compared to LNCaP, for markers ETV1 (FIG. 6, e) and PSA (FIG. 6, f), and the 4 contiguous transcripts at 14q13.3-14q21.1 (FIG. 6, g).
Additional prostate cancer cell lines were tested to screen for ERG and ETV1 expression by quantitative PCR (qPCR), to identify additional genetic rearrangements. The following cells were tested: an immortalized benign prostate epithelial cell line (RWPE) and 8 prostate cancer cell lines (MDA-PCa 2B, LNCaP, VCaP, LAPC4, 22Rv1, NCI-H660, PC3 and DU145). Quantitative PCR (QPCR) was performed by using the oligonucleotide primers shown in Table 1 (“Fusion QPCR” and “Androgen QPCR” sections) with standard laboratory procedures and reagents (Power SYBR Green Mastermix and 7300 Real Time PCR system, Applied Biosystems, Foster City, Calif.). All oligonucleotide primers were synthesized by standard methods (performed by Integrated DNA Technologies, Coralville, Iowa). HMBS and GAPDHS, and PSA6 primers were as described previously (Vandesompele et al., Genome Biol. 3:RESEARCH0034 (2002); Specht et al., Am J. Pathol. 158: 419 (2001)). Androgen stimulation reactions were performed in quadruplicate, and all other reactions were performed in duplicate.

**Q.** For `C[C@]1(O)CC[C@H]2[C@@H]3CCC4=CC(=O)CCC4=C3C=C[C@@]21C` [R1881], which “expression of ETV1 following R1881 stimulation” value (with vs without R1881, p=0.0004) is on record?
**A.** The value was 1.8 fold.

**Q.** And the “expression of SLC25A21 following R1881 stimulation” value (with vs without R1881, p=0.008)?
**A.** The value was 0.75 fold.

**Q.** What about the “expression of FOXA1 following R1881 stimulation” value (with vs without R1881, p=0.05) of the same compound?
**A.** The value was 1.3 fold.

**Q.** And the “expression of MIPOL1 following R1881 stimulation” value (with vs without R1881, p=0.08)?
**A.** The value was 1.2 fold.

**Q.** What about the “expression of TTC6 following R1881 stimulation” value (with vs without R1881, p=0.10) of the same compound?
**A.** Its value is 0.70 fold.
